In ChEMBL document CHEMBL1201862, “PubChem BioAssay data set” (2004):
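Tested at 5 concentrations; 48 h exposure; 96-well plates; endpoints linearly interpolated, else capped at highest concentration. GI50 is the concentration that inhibits growth by half.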 Calls of active or inactive are those of the source. Rule as the data show it: active = GI50 up to about 1.1 µM and inactive = higher.

Columns and labels:
Test in all cases: NCI-60 cell line screen, 48 h
NCI/ADR-RES = test system: NCI/ADR-RES
UACC-62 = test system: UACC-62
MCF7 = test system: MCF7
Hs-578T = test system: Hs-578T
OVCAR-5 = test system: OVCAR-5
HL-60 = test system: HL-60
MDA-MB-435 = test system: MDA-MB-435
PC-3 = test system: PC-3
MDA-N = test system: MDA-N
MDA-MB-231 = test system: MDA-MB-231
DU-145 = test system: DU-145
SF-268 = test system: SF-268
TK-10 = test system: TK-10
T47D = test system: T47D
KM12 = test system: KM12
SN12C = test system: SN12C
BT-549 = test system: BT-549
786-0 = test system: 786-0
Malme-3M = test system: Malme-3M

Row | Structure (SMILES) | GI50 (NCI/ADR-RES) | GI50 (UACC-62) | GI50 (MCF7) | GI50 (Hs-578T) | GI50 (OVCAR-5) | GI50 (HL-60) | GI50 (MDA-MB-435) | GI50 (PC-3) | GI50 (MDA-N) | GI50 (MDA-MB-231) | GI50 (DU-145) | GI50 (SF-268) | GI50 (TK-10) | GI50 (T47D) | GI50 (KM12) | GI50 (SN12C) | GI50 (BT-549) | GI50 (786-0) | GI50 (Malme-3M)
1 | Cc1c(N)nc([C@H](CC(N)=O)NC[C@H](N)C(N)=O)nc1C(=O)N[C@H](C(=O)N[C@H](C)[C@@H](O)CC(=O)N[C@H](C(=O)NC(O[C@@H]1O[C@@H](C)[C@@H](N)[C@@H](O)[C@H]1O)C(O)c1nc(-c2nc(C(=O)NCCCCN)cs2)cs1)[C@@H](C)O)[C@@H](O[C@@H]1O[C@@H](CO)[C@@H](O)[C@H](O)[C@@H]1O[C@H]1O[C@H](CO)[C@@H](O)[C@H](OC(N)=O)[C@@H]1O)c1c[nH]cn1 (stereo partly specified) | 7.89 µM (inactive) | 11.9 µM (inactive) | > 39.9 µM (inactive) | 18.7 µM (inactive) | > 50 µM (inactive) | > 44.2 µM (inactive) | > 50 µM (inactive) | > 50 µM (inactive) | > 50 µM (inactive) | > 50 µM (inactive) | > 27.7 µM (inactive) | 16.1 µM (inactive) | > 50 µM (inactive) | > 50 µM (inactive) | 49.1 µM (inactive) | 16.5 µM (inactive) | > 50 µM (inactive) | – | –
2 | O=[N+]([O-])/C(C(Cl)=C(Cl)Cl)=C1\Nc2ccccc2O1 | – | 9.16 µM (inactive) | 40.2 µM (inactive) | 32.3 µM (inactive) | > 100 µM (inactive) | 28.8 µM (inactive) | 36.6 µM (inactive) | 70.5 µM (inactive) | 45.4 µM (inactive) | 44.3 µM (inactive) | > 100 µM (inactive) | > 100 µM (inactive) | > 100 µM (inactive) | > 100 µM (inactive) | 90.6 µM (inactive) | 45.9 µM (inactive) | – | 17 µM (inactive) | 27.9 µM (inactive)
3 | CN(C)CCNC(=O)c1ccc(NCCCN(C)CCCNc2ccc3c(=O)n(CCN(C)C)c(=O)n4c5ccccc5c(=O)c2c34)c2c(O)c3ccccc3nc12 | 0.221 µM (active) | 0.0678 µM (active) | < 0.01 µM (active) | 0.0285 µM (active) | 0.0192 µM (active) | 0.0318 µM (active) | 0.0124 µM (active) | < 0.01 µM (active) | 0.0332 µM (active) | < 0.027 µM (active) | < 0.01 µM (active) | < 0.01 µM (active) | 0.0471 µM (active) | 0.165 µM (active) | < 0.01 µM (active) | < 0.01 µM (active) | 0.213 µM (active) | < 0.01 µM (active) | 0.0271 µM (active)
4 | CSc1nc(NC2OCC(O)C(O)C2O)c(N)c(=O)n1C (stereo unspecified) | > 100 µM (inactive) | > 100 µM (inactive) | > 100 µM (inactive) | – | > 100 µM (inactive) | > 100 µM (inactive) | – | – | – | – | – | > 100 µM (inactive) | – | – | > 100 µM (inactive) | > 100 µM (inactive) | – | – | > 100 µM (inactive)
5 | C[C@@H](O)C(=O)N1[C@@H]2CC3CC[C@]2(CS1(=O)=O)C3(C)C | > 100 µM (inactive) | > 100 µM (inactive) | > 100 µM (inactive) | – | > 100 µM (inactive) | 28.9 µM (inactive) | 63.8 µM (inactive) | 96.8 µM (inactive) | – | > 100 µM (inactive) | 88.1 µM (inactive) | – | > 100 µM (inactive) | > 100 µM (inactive) | 82.2 µM (inactive) | 55.5 µM (inactive) | > 100 µM (inactive) | 52.8 µM (inactive) | –
6 | CC(Oc1ccc(Cl)cc1Cl)C(=O)NN1C(=O)CC(=O)NC1=S (stereo unspecified) | > 100 µM (inactive) | 36.5 µM (inactive) | 76.7 µM (inactive) | > 100 µM (inactive) | > 100 µM (inactive) | 30.9 µM (inactive) | > 100 µM (inactive) | > 100 µM (inactive) | > 100 µM (inactive) | > 100 µM (inactive) | > 100 µM (inactive) | > 100 µM (inactive) | > 100 µM (inactive) | 31.8 µM (inactive) | > 100 µM (inactive) | > 100 µM (inactive) | > 100 µM (inactive) | > 100 µM (inactive) | > 100 µM (inactive)
7 | CC(C)(C)OC(=O)/C=C/C(=O)O/C=C/[N+](=O)[O-] | – | > 100 µM (inactive) | > 100 µM (inactive) | > 100 µM (inactive) | > 100 µM (inactive) | – | > 100 µM (inactive) | – | > 100 µM (inactive) | > 100 µM (inactive) | > 100 µM (inactive) | > 100 µM (inactive) | > 100 µM (inactive) | – | > 100 µM (inactive) | > 100 µM (inactive) | – | > 100 µM (inactive) | –
8 | CON(C)c1nc(N)c(C#N)c(C#N)c1C#N | > 10 µM (inactive) | > 10 µM (inactive) | > 10 µM (inactive) | > 10 µM (inactive) | > 10 µM (inactive) | 4.16 µM (inactive) | > 10 µM (inactive) | > 10 µM (inactive) | > 10 µM (inactive) | > 10 µM (inactive) | > 10 µM (inactive) | > 10 µM (inactive) | > 10 µM (inactive) | > 10 µM (inactive) | > 10 µM (inactive) | > 10 µM (inactive) | – | – | > 10 µM (inactive)
